Values after ≈ are worked out from the molar mass of the structure shown.
Tests used:
Assay type in all cases: cell-based
P. aeruginosa ATCC 27853 = assay: antibiotic susceptibility testing using the cell culture test device (DRAST), reference strain; details: Pseudomonas aeruginosa, ATCC27853, observed until 6 h
From the text: (§1) Referring first to (a) of FIG. 4, a liquid medium containing a gelling agent is mixed with a biological agent to prepare a mixture solution as a first fluid. The liquid medium may include at least about 95% by weight of water and can be solidified due to the presence of the gelling agent. As the gelling agent, there may be exemplified agar, agarose, gelatin, alginate, collagen or fibrin. The use of agar or agarose is preferred. For example, agar may be used in an amount of 0.5 to 4% by weight in the liquid medium. The liquid medium usually requires no nutrients. In some examples, however, the liquid medium may include nutrients. The liquid medium may be a solution including a medium stimulating the division of particular cells.
(§2) Referring next to (b) of FIG. 4, the mixture solution is provided to a recess 421 formed at the bottom of a first sub-well. The mixture solution may be loaded in an amount corresponding to the volume of the recess of the first sub-well. The volume of the mixture solution loaded into the recess of the first sub-well is preferably from 10 μl to 200 μl, more preferably from 10 μl to 150 μl. If the volume of the mixture solution loaded into the first sub-well is less than the lower limit, the density of cells in the mixture solution is low, making it difficult to observe the cells. […]

P. aeruginosa [1] = assay: susceptibility testing using the cell culture test device (DRAST), strain from blood sample
From the text: as §1
(§3) Referring next to (b) of FIG. 4, the mixture solution is provided to a recess 421 formed at the bottom of a first sub-well. The mixture solution may be loaded in an amount corresponding to the volume of the recess of the first sub-well. The volume of the mixture solution loaded into the recess of the first sub-well is preferably from 10 μl to 200 μl, more preferably from 10 μl to 150 μl. If the volume of the mixture solution loaded into the first sub-well is less than the lower limit, the density of cells in the mixture solution is low, making it difficult to observe the cells. Meanwhile, if the volume of the mixture solution loaded into the first sub-well exceeds the upper limit, the mixture solution may overflow into a second sub-well beyond a barrier. […] The micropatterned groove also allows the mixture solution to be well fixed to the desired area. […] Referring to FIG. 5, a micropatterned groove 522 is formed in the well a sample to fix the sample to only the desired area.
(§4) A blood sample positive for bacterial infection is collected and diluted with a medium containing a gelling agent.
(§5) The mixture solution is solidified to form a solid thin film immobilized with the biological agent. When the temperature of the liquid medium drops, the medium is solidified, which restricts the mobility of the biological agent. This immobilization facilitates continuous observation of the motile biological agent.
(§6) As shown in (c) of FIG. 4, a second sub-well 430 including a bioactive agent in a solid form is provided with a solvent capable of dissolving the bioactive agent. When a bioactive agent is absent in the second sub-well 430, a solution containing a bioactive agent can be provided to the second sub-well 430. Herein, the bioactive agent may include a substance selected from antibiotics, anticancer agents, drugs such as immunosuppressants, nutrients, cellular secretions, signal transducers, viruses, cells, micro RNAs, proteins, antigens, antibodies, and DNA.

P. aeruginosa [2] = assay: broth microdilution (BMD) susceptibility testing, strain from blood sample; details: BMD testing method
Method: (§7) The tests were conducted on various antibiotics that are currently used in testing organizations. […] The concentrations shown in FIG. 12 are expressed in μg/mL.

Enterobacter aerogenes [3] = assay: susceptibility testing using the cell culture test device (DRAST), strain from blood sample; details: E. aerogenes from blood sample
From the text: as §1, §3, §4, §5, §6

Enterobacter aerogenes [4] = assay: broth microdilution (BMD) susceptibility testing, strain from blood sample; details: E. aerogenes from blood sample; BMD testing method
Method: as §7

E. faecalis ATCC 29212 = assay: antibiotic susceptibility testing using the cell culture test device (DRAST), reference strain; details: Enterococcus faecalis, ATCC29212, observed until 6 h
From the text: as §1, §2

Row | Compound | MIC (P. aeruginosa ATCC 27853) [µg/mL] | susceptibility category (P. aeruginosa [1]) | susceptibility category (P. aeruginosa [2]) | susceptibility category (Enterobacter aerogenes [3]) | susceptibility category (Enterobacter aerogenes [4]) | MIC (E. faecalis ATCC 29212) [µg/mL]
1 | C[C@H]1[C@H](NC(=O)/C(=N\OC(C)(C)C(=O)O)c2csc(N)n2)C(=O)N1S(=O)(=O)O [aztreonam] | 8 (≈ 18.4 µM) | susceptible | I |  |  | 
2 | CC1(C)S[C@@H]2[C@H](NC(=O)[C@H](C(=O)O)c3ccsc3)C(=O)N2[C@H]1C(=O)O [ticarcillin] |  | susceptible | I |  |  | 
3 | colistin |  | I | susceptible | I | S | 
4 | CN(C)[C@@H]1C(O)=C(C(N)=O)C(=O)[C@@]2(O)C(O)=C3C(=O)c4c(O)cccc4[C@@](C)(O)[C@H]3C[C@@H]12 [tetracycline] |  |  |  |  |  | 8 (≈ 18 µM)
5 | CO/N=C(\C(=O)N[C@@H]1C(=O)N2C(C(=O)O)=C(COC(C)=O)CS[C@H]12)c1csc(N)n1 [cefotaxime] |  | susceptible | I |  |  | 
